Data: patent publication US6737383B1, “Herbicidal oxadiazolidines” (priority 1999, dated 2004)

Key:
[1] = test system: giant foxtail; assay: Test B pre/postemergence giant foxtail; type: in vivo, Setaria faberii
Method in brief: (§1)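 Test chemicals in a non-phytotoxic solvent mixture with surfactant were sprayed preemergence onto planted seeds and postemergence onto plants 2 to 18 cm tall (1- to 4-leaf stage). After twelve to sixteen days in a greenhouse, injury was visually rated against untreated controls from 0 (no effect) to 10 (complete control).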

[2] = test system: morningglory; assay: Test B pre/postemergence morningglory; type: in vivo, Ipomoea hederacea
Method in brief: as §1

[3] = test system: rice; assay: Test B flood test rice; type: in vivo, Oryza sativa
Method in brief: (§2)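 Flood test on plants grown to the 2-leaf stage; treated plants kept in greenhouse twelve to sixteen days, then visually rated against controls on a 0 (no effect) to 10 (complete control) scale.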

[4] = test system: duck salad; assay: Test B flood test duck salad; type: in vivo, Heteranthera limosa
Method in brief: as §2

[5] = Postemergence, Rate 62 g/ha, scale 0 to 10, 0 is no effect, 10 is complete control
[6] = Postemergence, Rate 125 g/ha, scale of 0 to 10 where 0 is no effect and 10 is complete control
[7] = Postemergence, Rate 250 g/ha, scale of 0 to 10, 0 is no effect, 10 is complete control
[8] = Preemergence, Rate 62 g/ha, scale of 0 to 10 where 0 is no effect and 10 is complete control
[9] = Preemergence, Rate 125 g/ha, scale of 0 to 10 where 0 is no effect and 10 is complete control
[10] = Preemergence, Rate 250 g/ha, scale 0 to 10 (0 no effect, 10 complete control)
[11] = Preemergence, Rate 500 g/ha, scale of 0 to 10 where 0 is no effect and 10 is complete control
[12] = Rate 500 g/ha, Postemergence, scale 0 to 10, 0 is no effect, 10 is complete control
[13] = Rate 62 g/ha, flood test species, Pre-emergence, visual evaluation after twelve to sixteen days
[14] = Rate 125 g/ha, under heading Pre-emergence, flood test species, visual evaluation after twelve to sixteen days
[15] = Rate 250 g/ha, Pre-emergence (flood test species), scale 0 to 10, 0 is no effect, 10 is complete control
[16] = Rate 500 g/ha, Pre-emergence section of Table B, 0 to 10 scale (0 no effect, 10 complete control)
[17] = Postemergence, Rate 250 g/ha, scale 0 to 10, 0 no effect, 10 complete control
[18] = Postemergence, Rate 1000 g/ha, scale 0 to 10 (0 no effect, 10 complete control)
[19] = Preemergence, Rate 125 g/ha, scale 0 to 10 (0 no effect, 10 complete control)
[20] = Preemergence, Rate 250 g/ha, scale of 0 to 10 where 0 is no effect and 10 is complete control
[21] = Preemergence, Rate 500 g/ha, scale 0 (no effect) to 10 (complete control)
[22] = Rate 125 g/ha, Postemergence, scale 0 to 10, 0 no effect, 10 complete control
[23] = Rate 500 g/ha, Postemergence, 0 to 10 scale (0 no effect, 10 complete control)
[24] = Rate 1000 g/ha, Preemergence, scale 0 to 10 (0 no effect, 10 complete control)
[25] = Rate 125 g/ha, Postemergence section (flood test species), scale 0 to 10, 0 no effect, 10 complete control
[26] = Rate 500 g/ha, Postemergence section of Table B, 0 to 10 scale (0 no effect, 10 complete control)
[27] = flood test, listed under Postemergence, Rate 250 g/ha, scale 0 to 10, 0 no effect, 10 complete control
[28] = Preemergence, Rate 125 g/ha, 0 is no effect, 10 is complete control
[29] = Preemergence, Rate 250 g/ha, scale 0 to 10, 0 is no effect, 10 is complete control
[30] = Rate 62 g/ha, Postemergence, scale of 0 to 10 where 0 is no effect and 10 is complete control
[31] = Rate 125 g/ha, Postemergence, scale 0 to 10
[32] = Rate 500 g/ha, Postemergence, scale 0 to 10
[33] = Rate 62 g/ha, headed Pre-emergence (flood test species), scale 0 to 10 (0 no effect, 10 complete control)
[34] = Rate 125 g/ha, Pre-emergence, flood test species, scale 0 to 10 where 0 is no effect and 10 is complete control
[35] = Rate 250 g/ha, Pre-emergence, flood-test species, scale 0 to 10, 0 is no effect, 10 is complete control
[36] = Rate 500 g/ha, headed Pre-emergence (flood test species), scale 0 to 10 (0 no effect, 10 complete control)

CC(C)N(C(=O)n1oc(=O)n(CCC(=O)N(C)C)c1=O)c1ccccc1 [Compound 671]
0: Morningglory plant response rating [2, 8] | Plant response rating, Rice (0 to 10 scale, 0 is no effect, 10 is complete control) [3, 13] | Rice plant response rating (0 to 10 scale, 0 is no effect, 10 is complete control) [3, 14] | Rice plant response rating [3, 15] | Rice plant response rating [3, 16] | Plant response rating, Ducksalad (0 to 10 scale, 0 is no effect, 10 is complete control) [4, 13] | Ducksalad plant response rating (0 to 10 scale, 0 is no effect, 10 is complete control) [4, 14] | Ducksalad plant response rating [4, 15] | Ducksalad plant response rating [4, 16]
1: Plant response rating, Morningglory [2, 5] | Morningglory plant response rating [2, 6] | Morningglory plant response rating [2, 7]
5: Plant response rating, Giant foxtail [1, 5] | Giant foxtail plant response rating [1, 6] | Plant response rating, Morningglory [2, 10]
2: Plant response rating, Morningglory [2, 9]
6: Morningglory plant response rating [2, 12]
9: Giant foxtail plant response rating [1, 7] | Plant response rating, Giant foxtail [1, 9] | Giant foxtail plant response rating [1, 12]
10: Plant response rating, Giant foxtail [1, 10] | Plant response rating, Giant foxtail [1, 11]
8: Giant foxtail plant response rating [1, 8] | Plant response rating, Morningglory [2, 11]

CC(C)N(C(=O)n1oc(=O)n(-c2cc(Cl)cc(Cl)c2)c1=O)C1=CCOCC1 [Compound 9]
7: Plant response rating, Giant foxtail [1, 24]
2: Morningglory plant response rating [2, 18]
3: Giant foxtail plant response rating [1, 21]
0: Giant foxtail plant response rating [1, 17] | Giant foxtail plant response rating [1, 18] | Plant response rating, Giant foxtail [1, 19] | Plant response rating, Giant foxtail [1, 20] | Giant foxtail plant response rating [1, 22] | Giant foxtail plant response rating [1, 23] | Morningglory plant response rating [2, 17] | Plant response rating, Morningglory [2, 19] | Plant response rating, Morningglory [2, 20] | Morningglory plant response rating [2, 21] | Morningglory plant response rating [2, 22] | Morningglory plant response rating [2, 23] | Plant response rating, Morningglory [2, 24] | Rice plant response rating [3, 18] | Rice plant response rating [3, 25] | Rice plant response rating [3, 26] | Rice plant response rating [3, 27] | Ducksalad plant response rating [4, 18] | Ducksalad plant response rating [4, 25] | Ducksalad plant response rating [4, 26] | Ducksalad plant response rating [4, 27]

Cc1ccccc1-n1c(=O)on(C(=O)N(c2ccc(Cl)cc2F)C(C)C)c1=O [Compound 195]
3: Giant foxtail plant response rating [1, 8] | Giant foxtail plant response rating (0 to 10 scale) [1, 28] | Giant foxtail plant response rating [1, 32] | Morningglory plant response rating [2, 32]
8: Giant foxtail plant response rating [1, 29]
10: Plant response rating, Giant foxtail [1, 11]
1: Plant response rating (0 to 10; 0 is no effect, 10 is complete control), Giant foxtail ([1]; Rate 250 g/ha, Postemergence) | Plant response rating (0 to 10; 0 is no effect, 10 is complete control), Morningglory ([2]; Rate 250 g/ha, Postemergence)
0: Giant foxtail plant response rating [1, 30] | Giant foxtail plant response rating [1, 31] | Morningglory plant response rating [2, 8] | Morningglory plant response rating (0 to 10 scale) [2, 28] | Morningglory plant response rating [2, 29] | Plant response rating, Morningglory [2, 11] | Morningglory plant response rating [2, 30] | Morningglory plant response rating [2, 31] | Rice plant response rating [3, 33] | Rice plant response rating [3, 34] | Rice plant response rating [3, 35] | Plant response rating, Rice [3, 36] | Ducksalad plant response rating [4, 33] | Ducksalad plant response rating [4, 34] | Ducksalad plant response rating [4, 35] | Plant response rating, Ducksalad [4, 36]
